Measurements from ChEMBL document CHEMBL5303711, “ECBD screening data for assay EOS300108” (2023).
Where a name gives a salt, the structure may show the parent alone. The source made the active and inactive calls. How the calls were made is not given here.

Assays:
[1] = (§1) Cytotoxicity activity against human HepG2 cells assessed by CellTiter-Glo luminescent cell viability assay.; type: toxicity, cell-based; set-up: assay stage confirmatory assay, source tissue liver; settings: HepG2 cells, read-out: IC50 relative
HepG2 = experiment: as §1; type: toxicity, cell-based; set-up: assay stage confirmatory assay, source tissue liver; settings: hepg2, read-out: IC50 relative

Q: Which CC50 [1] does the source give for `O=C1C(=O)c2ccccc2-c2ccccc21` [9,10-PHENANTHRENEQUINONE] here?
A: Its CC50 is 1.1 µM (active).

Q: And the CC50 (HepG2)?
A: The CC50 was 1.2 µM (active).

Q: For `COc1cc(/C=C/C(=O)CC(=O)/C=C/c2ccc(O)c(OC)c2)ccc1O` [CURCUMIN], which CC50 [1] is on record?
A: Its CC50 is 5.3 µM (active).

Q: And the CC50 (HepG2)?
A: Its CC50 is 7.1 µM (active).

Q: What does the source list for `O=c1c2ccccc2sn1-c1ccccc1`?
A: CC50 [1]: 10.5 µM (active); CC50 (HepG2): 13 µM (inactive)

Q: For `O=C1C(Cl)=C(NCCN2CCOCC2)C(=O)c2ncccc21`, which CC50 [1] is on record?
A: Its CC50 is 4.5 µM (active).

Q: What about the CC50 (HepG2) of the same compound?
A: The CC50 was 4 µM (active).

Q: With `Cc1ccc(-n2sc3ccccc3c2=O)cc1` as the compound, how does the CC50 [1] read?
A: The CC50 was 8.7 µM (active).

Q: And the CC50 (HepG2)?
A: The CC50 was 9.1 µM (active).

Q: With `CN1CCN(c2ccc3nc(-c4c(N)c5c(F)cccc5[nH]c4=O)[nH]c3c2)CC1` [DOVITINIB] as the compound, how does the CC50 [1] read?
A: Its CC50 is 2.7 µM (active).

Q: What about the CC50 (HepG2) of the same compound?
A: The CC50 was 4.4 µM (active).

Q: For `Cc1ccc(Sc2ccccc2N2CCNCC2)c(C)c1` [VORTIOXETINE], which CC50 [1] is on record?
A: Its CC50 is 4.1 µM (active).

Q: For `Cc1cc(C(=O)Nc2cc(Cl)ccc2N2CCN(C)CC2)no1`, which CC50 [1] is on record?
A: The CC50 was 11.9 µM (active).

Q: With `Oc1cc(-c2nc(-c3ccccc3)[nH]c2-c2ccncc2)ccc1Cl` as the compound, how does the CC50 [1] read?
A: The CC50 was 0.6 µM (active).

Q: Which CC50 [1] does the source give for `ON=C1C[C@@H](c2ccc(Cl)cc2)Oc2ccccc21` here?
A: The CC50 was 2.7 µM (active).

Q: For `C[C@@H](NCCCc1cccc(C(F)(F)F)c1)c1cccc2ccccc12` [CINACALCET HYDROCHLORIDE], which CC50 [1] is on record?
A: Its CC50 is 5.1 µM (active).

Q: For `CN(C)/C=C/C=C/C=C/C1=[N+](C)c2ccccc2C1(C)C`, which CC50 [1] is on record?
A: Its CC50 is 10.3 µM (active).

Q: With `COc1ccc(C(=O)N2CCCN(CCc3nc4ccccc4n3C)CC2)cc1` as the compound, how does the CC50 [1] read?
A: The CC50 was 11.3 µM (inactive).

Q: Which CC50 [1] does the source give for `N[C@@H](Cc1ccccc1)C(=O)N1C/C(=C\c2ccc(Cl)c(Cl)c2)C(=O)/C(=C/c2ccc(Cl)c(Cl)c2)C1` here?
A: The CC50 was 7.9 µM (active).

Q: For `CCN1CCN(c2ncc(C(=O)Nc3ccc(Br)cc3)c(C)n2)CC1`, which CC50 [1] is on record?
A: Its CC50 is 13.8 µM (inactive).

Q: With `O=C(CCCCCCNC(=O)c1cnc(N(c2ccccc2)c2ccccc2Cl)nc1)NO` [CITARINOSTAT] as the compound, how does the CC50 [1] read?
A: The CC50 was 3 µM (active).

Q: With `COc1ccc(-c2nc(N3CCOCC3)c3sc(CN(C)c4ncc(C(=O)NO)cn4)cc3n2)cn1` [FIMEPINOSTAT] as the compound, how does the CC50 [1] read?
A: Its CC50 is < 0.1 µM (active).

Q: Which CC50 [1] does the source give for `OC(CN1CCC(Cc2ccc(F)cc2)CC1)c1ccc(Cl)cc1` (centres undefined) [ELIPRODIL] here?
A: Its CC50 is 50 µM (inactive).

Q: Which CC50 [1] does the source give for `Cc1cccc(NC(=O)C2CCN(S(=O)(=O)c3ccc4c(c3)CC(C)N4C(=O)C3CC3)CC2)n1` (centres undefined) here?
A: The CC50 was 1.7 µM (active).

Q: With `CN(C)CCCN(CCCN(C)C)CC1=CCC2CC1C2(C)C` (centres undefined) as the compound, how does the CC50 [1] read?
A: Its CC50 is 9.6 µM (active).

Q: Which CC50 [1] does the source give for `COc1ccc(C(=O)N[C@@H]2CN(Cc3ccccc3)C[C@H]2CN(C)C)cc1` here?
A: The CC50 was 7.2 µM (active).

Q: With `COc1cccc2c(NCc3ccccc3)nc(-n3c(N)nc4ccccc43)nc12` as the compound, how does the CC50 [1] read?
A: The CC50 was 9.6 µM (active).

Q: For `CCn1cc(-c2ccnc3[nH]c(-c4cccc(CN(C)C)c4)cc23)c(-c2ccc(NC(=O)N(C)C)cc2)n1` [GSK-1070916], which CC50 [1] is on record?
A: The CC50 was 2.8 µM (active).

Q: Which CC50 [1] does the source give for `CN(C)S(=O)(=O)c1cccc(NC(=O)CSc2cccc3cccnc23)c1` here?
A: Its CC50 is 3.5 µM (active).

Q: With `CCN1CCN(Cc2ccc(-c3cc4c(N[C@H](C)c5ccccc5)ncnc4[nH]3)cc2)CC1` [AEE-788] as the compound, how does the CC50 [1] read?
A: Its CC50 is 4.1 µM (active).

Q: For `Cc1c(C(=O)Nc2cccc(C(F)(F)F)c2)cc(-c2ccccc2)n1CCCN1CCOCC1`, which CC50 [1] is on record?
A: Its CC50 is 13.9 µM (inactive).

Q: Which CC50 [1] does the source give for `Oc1c(Cl)cc(Cl)cc1Sc1cc(Cl)cc(Cl)c1O` [BITHIONOL] here?
A: Its CC50 is 14.6 µM (inactive).

Q: Which CC50 [1] does the source give for `Fc1ccc(CNc2ncnc3ccc(F)cc23)cc1` here?
A: The CC50 was 4.3 µM (active).

Q: For `Cc1cnc(Nc2ccc(F)cc2Cl)nc1-c1c[nH]c(C(=O)N[C@H](CO)c2cccc(Cl)c2)c1`, which CC50 [1] is on record?
A: The CC50 was 0.7 µM (active).

Q: Which CC50 [1] does the source give for `COc1cc2c(Nc3ccc(Br)cc3F)ncnc2cc1OCC1CCN(C)CC1` [VANDETANIB] here?
A: The CC50 was 2.6 µM (active).

Q: Which CC50 [1] does the source give for `COc1ccccc1N1CCN(S(=O)(=O)c2ccc3c4c(cccc24)C(=O)N3)CC1` here?
A: The CC50 was 10.8 µM (inactive).

Q: For `Cc1c(C(=O)Nc2ccnc3ccnn23)cnn1-c1ccccc1F`, which CC50 [1] is on record?
A: The CC50 was 3.3 µM (active).

Q: With `CCCCNc1nc(-c2cc(C)ccn2)cs1` as the compound, how does the CC50 [1] read?
A: Its CC50 is 6.3 µM (active).

Q: With `CC(C)c1cc(N2CCN(c3ccc(C#N)cc3)CC2)ncn1` as the compound, how does the CC50 [1] read?
A: The CC50 was 5.7 µM (active).

Q: With `CCOc1cccc(OCC)c2c(C)nc(C)c1-2` as the compound, how does the CC50 [1] read?
A: The CC50 was 26.6 µM (inactive).

Q: With `CCS(=O)(=O)c1ncc(Cl)c(C(=O)Nc2ccc(OC)cc2)n1` as the compound, how does the CC50 [1] read?
A: The CC50 was 2.6 µM (active).

Q: For `CC1CCN(S(=O)(=O)c2ccc(-c3nnc(C(=O)NCCCN4CCCCCC4)o3)cc2)CC1`, which CC50 [1] is on record?
A: Its CC50 is 15.6 µM (inactive).

Q: Which CC50 [1] does the source give for `Cc1csc(-c2nnc(Nc3ccc(Oc4ncccc4-c4ccnc(N)n4)cc3)c3ccccc23)c1` [AMG-900] here?
A: Its CC50 is 25.4 µM (inactive).

Q: For `CCN1CCN(CC(O)COc2cc(C)c(Cl)c(C)c2)CC1` (centres undefined), which CC50 [1] is on record?
A: The CC50 was 12.8 µM (inactive).

Q: Which CC50 [1] does the source give for `CC(=O)CCS(=O)(=O)c1ccc(Cc2ccc(S(=O)(=O)CCC(C)=O)cc2)cc1` here?
A: The CC50 was 9.2 µM (active).

Q: Which CC50 [1] does the source give for `Nc1ccc2c(c1)C(=O)C(=O)c1ccccc1-2` here?
A: The CC50 was 4.2 µM (active).

Q: With `N[C@H]1CC[C@H](Nc2cc(-c3cccc(NCc4cccc(F)c4)n3)c(Cl)cn2)CC1` as the compound, how does the CC50 [1] read?
A: Its CC50 is 0.1 µM (active).

Q: For `Cc1ccc(C)c(N2CCN(CCCNC(=O)C3CCN(c4ccc5nnc(C)n5n4)CC3)CC2)c1`, which CC50 [1] is on record?
A: The CC50 was 8.7 µM (active).
